Measured values from patent US20260242419A1, “A CYCLIC PEPTIDE FOR TRAPPING INTERLEUKIN-1 BETA” (Merck Sharp & Dohme LLC, priority 2023, published 2026).
Starred links: 1 amine or outer side, 2 acyl side, 3 side chain; linkers in the order of their positions; H or OH if unused. Non-standard residues stand in square brackets, D forms with d. Residues, ends and D or L forms follow the SMILES beside them. dPro(4R-(4-pyridylmethyl)) = O=C(O)[C@H]1C[C@@H](Cc2ccncc2)CN1; Ala(piperidin-4-yl) = O=C([C@H](CC1CCN([*:3])CC1)N[*:1])[*:2]; Trp(βS-Me,4-F) = C[C@@H](c1c[nH]c2cccc(F)c12)[C@H](N)C(=O)O; Bip(4'-COOH) = N[C@@H](Cc1ccc(-c2ccc(C(=O)O)cc2)cc1)C(=O)O; X11 = O=C([C@H]1C[C@@H](Cc2ccc(F)c3ccccc23)CN1[*:1])[*:2]; dPro(4R-Bzl(4-F)) = O=C(O)[C@H]1C[C@@H](Cc2ccc(F)cc2)CN1; X20 = O=C([C@H]1C[C@@H](Cc2ccc(Cl)cc2)CN1[*:1])[*:2]; X4 = O=C([C@H]1[C@@H](Cc2ccncc2)CCN1[*:1])[*:2]; Ala(morpholin-4-yl) = N[C@@H](CN1CCOCC1)C(=O)O; Ala(pyrimidin-5-yl) = N[C@@H](Cc1cncnc1)C(=O)O; Phe(4-COOH) = N[C@@H](Cc1ccc(C(=O)O)cc1)C(=O)O; Ala(4-Pyridazinyl) = N[C@@H](Cc1ccnnc1)C(=O)O; Ala(2-pyrazinyl) = N[C@@H](Cc1cnccn1)C(=O)O; Pro(cis-4-F) = O=C(O)[C@@H]1C[C@H](F)CN1; AEF = NCCOc1ccc(C[C@H](N)C(=O)O)cc1; cisHyp = O=C(O)[C@@H]1C[C@H](O)CN1; d(αMeD) = C[C@@](N)(CC(=O)O)C(=O)O; h4Pal = N[C@@H](CCc1ccncc1)C(=O)O; 3Pal = N[C@@H](Cc1cccnc1)C(=O)O; 4Pal = N[C@@H](Cc1ccncc1)C(=O)O; Dab = NCC[C@H](N)C(=O)O; Aib = CC(C)(N)C(=O)O

target: T1, IL-1β (Homo sapiens, UniProt P01584); test: IL-6 assay in MRC5 cells: inhibition of IL-1β induced IL-6 secretion (AlphaLISA); format: cell-based; conditions: inhibition of IL-1β induced IL-6 secretion in MRC5 cells; read-out: MRC5 IC50
T1 construct: purchased BioLegend 579404
T1 sequence (P01584 117-269): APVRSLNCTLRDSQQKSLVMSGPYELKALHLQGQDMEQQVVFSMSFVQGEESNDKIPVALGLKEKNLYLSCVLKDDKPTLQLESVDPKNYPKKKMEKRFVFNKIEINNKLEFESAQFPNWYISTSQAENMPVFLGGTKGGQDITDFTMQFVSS
In short: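 Compound was pre-incubated 1 h at ambient temperature with recombinant human IL-1β at 2λ EC80 before adding human lung fibroblast MRC5 cells (3000/well) in EMEM with 0.025% BSA. After overnight culture at 37 °C, 5% CO2, secreted IL-6 in conditioned medium was measured by AlphaLISA; IC50 from 4-parameter logistic fits.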

Structure (SMILES) | IC50
CC(=O)NCCOc1ccc(C[C@@H]2NC(=O)[C@H]3C[C@@H](Cc4ccncc4)CN3C(=O)CNC(=O)[C@H](CCN)NC(=O)[C@H](CCC(N)=O)NC(=O)[C@H](Cc3c[nH]cn3)NC(=O)C(C)(C)NC(=O)[C@H](Cc3c[nH]c4ccccc34)NC(=O)[C@H](CCC(=O)O)NC(=O)C(C)(C)NC(=O)[C@H]([C@@H](C)c3c[nH]c4cccc(F)c34)NC(=O)[C@@H]3C[C@H](F)CN3C(=O)CNC(=O)[C@H](Cc3ccc(C(=O)O)cc3)NC(=O)[C@H](Cc3ccncc3)NC2=O)cc1 [Example 317] (cyclo([AEF](Ac)[4Pal][Phe(4-COOH)]G[Pro(cis-4-F)][Trp(βS-Me,4-F)][Aib]EW[Aib]HQ[Dab]G[dPro(4R-(4-pyridylmethyl))])) | 0.015 nM
CC(=O)NCCOc1ccc(C[C@@H]2NC(=O)[C@H]3C[C@@H](Cc4ccncc4)CN3C(=O)CNC(=O)[C@H](CCN)NC(=O)[C@H](CCC(N)=O)NC(=O)[C@H](CCc3ccncc3)NC(=O)C(C)(C)NC(=O)[C@H](Cc3c[nH]c4ccccc34)NC(=O)[C@H](CCC(=O)O)NC(=O)C(C)(C)NC(=O)[C@H]([C@@H](C)c3c[nH]c4cccc(F)c34)NC(=O)[C@@H]3C[C@H](F)CN3C(=O)CNC(=O)[C@H](Cc3ccc(C(=O)O)cc3)NC(=O)[C@H](Cc3ccncc3)NC2=O)cc1 [Example 318] (cyclo([AEF](Ac)[4Pal][Phe(4-COOH)]G[Pro(cis-4-F)][Trp(βS-Me,4-F)][Aib]EW[Aib][h4Pal]Q[Dab]G[dPro(4R-(4-pyridylmethyl))])) | 0.025 nM
C[C@@H](c1c[nH]c2cccc(F)c12)[C@@H]1NC(=O)[C@@H]2C[C@H](F)CN2C(=O)CNC(=O)[C@H](Cc2ccc(C(=O)O)cc2)NC(=O)[C@H](Cc2ccncc2)NC(=O)[C@H](Cc2ccc(-c3ccc(C(=O)O)cc3)cc2)NC(=O)[C@H]2C[C@@H](Cc3ccc(F)cc3)CN2C(=O)CNC(=O)[C@H](CCN)NC(=O)[C@H](CCC(N)=O)NC(=O)[C@H](CN2CCOCC2)NC(=O)[C@@](C)(CC(=O)O)NC(=O)[C@H](Cc2c[nH]c3ccccc23)NC(=O)[C@H](CO)NC(=O)C(C)(C)NC1=O [Example 319] (cyclo([Bip(4'-COOH)][4Pal][Phe(4-COOH)]G[Pro(cis-4-F)][Trp(βS-Me,4-F)][Aib]SW[d(αMeD)][Ala(morpholin-4-yl)]Q[Dab]G[dPro(4R-Bzl(4-F))])) | 0.017 nM
C[C@@H](c1c[nH]c2cccc(F)c12)[C@@H]1NC(=O)[C@@H]2C[C@H](F)CN2C(=O)CNC(=O)[C@H](Cc2ccc(C(=O)O)cc2)NC(=O)[C@H](Cc2ccncc2)NC(=O)[C@H](Cc2ccc(-c3ccc(C(=O)O)cc3)cc2)NC(=O)[C@H]2C[C@@H](Cc3ccc(F)cc3)CN2C(=O)CNC(=O)[C@H](CCN)NC(=O)[C@H](CCC(N)=O)NC(=O)[C@H](CC2CCNCC2)NC(=O)[C@@](C)(CC(=O)O)NC(=O)[C@H](Cc2c[nH]c3ccccc23)NC(=O)[C@H](CO)NC(=O)C(C)(C)NC1=O [Example 320] (cyclo([Bip(4'-COOH)][4Pal][Phe(4-COOH)]G[Pro(cis-4-F)][Trp(βS-Me,4-F)][Aib]SW[d(αMeD)][Ala(piperidin-4-yl)]Q[Dab]G[dPro(4R-Bzl(4-F))])) | 0.015 nM
C[C@@H](c1c[nH]c2cccc(F)c12)[C@@H]1NC(=O)[C@@H]2C[C@H](F)CN2C(=O)CNC(=O)[C@H](Cc2ccc(C(=O)O)cc2)NC(=O)[C@H](Cc2ccncc2)NC(=O)[C@H](Cc2ccc(-c3ccc(C(=O)O)cc3)cc2)NC(=O)[C@H]2C[C@@H](Cc3ccc(F)cc3)CN2C(=O)CNC(=O)[C@H](CCN)NC(=O)[C@H](CCC(N)=O)NC(=O)[C@H](Cc2cnccn2)NC(=O)[C@@](C)(CC(=O)O)NC(=O)[C@H](Cc2c[nH]c3ccccc23)NC(=O)[C@H](CO)NC(=O)C(C)(C)NC1=O [Example 321] (cyclo([Bip(4'-COOH)][4Pal][Phe(4-COOH)]G[Pro(cis-4-F)][Trp(βS-Me,4-F)][Aib]SW[d(αMeD)][Ala(2-pyrazinyl)]Q[Dab]G[dPro(4R-Bzl(4-F))])) | 0.015 nM
C[C@@H](c1c[nH]c2cccc(F)c12)[C@@H]1NC(=O)[C@@H]2C[C@H](F)CN2C(=O)CNC(=O)[C@H](Cc2ccc(C(=O)O)cc2)NC(=O)[C@H](Cc2ccncc2)NC(=O)[C@H](Cc2ccc(-c3ccc(C(=O)O)cc3)cc2)NC(=O)[C@H]2C[C@@H](Cc3ccc(F)cc3)CN2C(=O)CNC(=O)[C@H](CCN)NC(=O)[C@H](CCC(N)=O)NC(=O)[C@H](Cc2ccnnc2)NC(=O)[C@@](C)(CC(=O)O)NC(=O)[C@H](Cc2c[nH]c3ccccc23)NC(=O)[C@H](CO)NC(=O)C(C)(C)NC1=O [Example 322] (cyclo([Bip(4'-COOH)][4Pal][Phe(4-COOH)]G[Pro(cis-4-F)][Trp(βS-Me,4-F)][Aib]SW[d(αMeD)][Ala(4-Pyridazinyl)]Q[Dab]G[dPro(4R-Bzl(4-F))])) | 0.013 nM

Further lines, results first:

IC50 | Structure (SMILES)
0.012 nM | C[C@@H](c1c[nH]c2cccc(F)c12)[C@@H]1NC(=O)[C@@H]2C[C@H](F)CN2C(=O)CNC(=O)[C@H](Cc2ccc(C(=O)O)cc2)NC(=O)[C@H](Cc2ccncc2)NC(=O)[C@H](Cc2ccc(-c3ccc(C(=O)O)cc3)cc2)NC(=O)[C@H]2C[C@@H](Cc3ccc(F)cc3)CN2C(=O)CNC(=O)[C@H](CCN)NC(=O)[C@H](CCC(N)=O)NC(=O)[C@H](Cc2cccnc2)NC(=O)[C@@](C)(CC(=O)O)NC(=O)[C@H](Cc2c[nH]c3ccccc23)NC(=O)[C@H](CO)NC(=O)C(C)(C)NC1=O [Example 323] (cyclo([Bip(4'-COOH)][4Pal][Phe(4-COOH)]G[Pro(cis-4-F)][Trp(βS-Me,4-F)][Aib]SW[d(αMeD)][3Pal]Q[Dab]G[dPro(4R-Bzl(4-F))]))
0.013 nM | C[C@@H](c1c[nH]c2cccc(F)c12)[C@@H]1NC(=O)[C@@H]2C[C@H](F)CN2C(=O)CNC(=O)[C@H](Cc2ccc(C(=O)O)cc2)NC(=O)[C@H](Cc2ccncc2)NC(=O)[C@H](Cc2ccc(-c3ccc(C(=O)O)cc3)cc2)NC(=O)[C@H]2C[C@@H](Cc3ccc(F)cc3)CN2C(=O)CNC(=O)[C@H](CCN)NC(=O)[C@H](CCC(N)=O)NC(=O)[C@H](Cc2ccncc2)NC(=O)[C@@](C)(CC(=O)O)NC(=O)[C@H](Cc2c[nH]c3ccccc23)NC(=O)[C@H](CO)NC(=O)C(C)(C)NC1=O [Example 324] (cyclo([Bip(4'-COOH)][4Pal][Phe(4-COOH)]G[Pro(cis-4-F)][Trp(βS-Me,4-F)][Aib]SW[d(αMeD)][4Pal]Q[Dab]G[dPro(4R-Bzl(4-F))]))
0.027 nM | C[C@@H](c1c[nH]c2cccc(F)c12)[C@@H]1NC(=O)[C@@H]2C[C@H](O)CN2C(=O)CNC(=O)[C@H](Cc2ccc(C(=O)O)cc2)NC(=O)[C@H](Cc2ccncc2)NC(=O)[C@H](Cc2ccc(-c3ccc(C(=O)O)cc3)cc2)NC(=O)[C@H]2[C@@H](Cc3ccncc3)CCN2C(=O)CNC(=O)[C@H](CCN)NC(=O)[C@H](CCC(N)=O)NC(=O)[C@H](Cc2cncnc2)NC(=O)C(C)(C)NC(=O)[C@H](Cc2c[nH]c3ccccc23)NC(=O)[C@H](CO)NC(=O)C(C)(C)NC1=O [Example 325] (cyclo([Bip(4'-COOH)][4Pal][Phe(4-COOH)]G[cisHyp][Trp(βS-Me,4-F)][Aib]SW[Aib][Ala(pyrimidin-5-yl)]Q[Dab]G[X4]))
0.011 nM | C[C@@H](c1c[nH]c2cccc(F)c12)[C@@H]1NC(=O)[C@@H]2C[C@H](F)CN2C(=O)CNC(=O)[C@H](Cc2ccc(C(=O)O)cc2)NC(=O)[C@H](Cc2ccncc2)NC(=O)[C@H](Cc2ccc(-c3ccc(C(=O)O)cc3)cc2)NC(=O)[C@H]2[C@@H](Cc3ccncc3)CCN2C(=O)CNC(=O)[C@H](CCN)NC(=O)[C@H](CCC(N)=O)NC(=O)[C@H](Cc2cncnc2)NC(=O)C(C)(C)NC(=O)[C@H](Cc2c[nH]c3ccccc23)NC(=O)[C@H](CO)NC(=O)C(C)(C)NC1=O [Example 326] (cyclo([Bip(4'-COOH)][4Pal][Phe(4-COOH)]G[Pro(cis-4-F)][Trp(βS-Me,4-F)][Aib]SW[Aib][Ala(pyrimidin-5-yl)]Q[Dab]G[X4]))
0.016 nM | C[C@@H](c1c[nH]c2cccc(F)c12)[C@@H]1NC(=O)[C@@H]2C[C@H](F)CN2C(=O)CNC(=O)[C@H](Cc2ccc(C(=O)O)cc2)NC(=O)[C@H](Cc2ccncc2)NC(=O)[C@H](Cc2ccc(-c3ccc(C(=O)O)cc3)cc2)NC(=O)[C@H]2C[C@@H](Cc3ccc(F)c4ccccc34)CN2C(=O)CNC(=O)[C@H](CCN)NC(=O)[C@H](CCC(N)=O)NC(=O)[C@H](Cc2cncnc2)NC(=O)[C@@](C)(CC(=O)O)NC(=O)[C@H](Cc2c[nH]c3ccccc23)NC(=O)[C@H](CO)NC(=O)C(C)(C)NC1=O [Example 327] (cyclo([Bip(4'-COOH)][4Pal][Phe(4-COOH)]G[Pro(cis-4-F)][Trp(βS-Me,4-F)][Aib]SW[d(αMeD)][Ala(pyrimidin-5-yl)]Q[Dab]G[X11]))
0.008 nM | C[C@@H](c1c[nH]c2cccc(F)c12)[C@@H]1NC(=O)[C@@H]2C[C@H](F)CN2C(=O)CNC(=O)[C@H](Cc2ccc(C(=O)O)cc2)NC(=O)[C@H](Cc2ccncc2)NC(=O)[C@H](Cc2ccc(-c3ccc(C(=O)O)cc3)cc2)NC(=O)[C@H]2[C@@H](Cc3ccncc3)CCN2C(=O)CNC(=O)[C@H](CCN)NC(=O)[C@H](CCC(N)=O)NC(=O)[C@H](Cc2cncnc2)NC(=O)[C@@](C)(CC(=O)O)NC(=O)[C@H](Cc2c[nH]c3ccccc23)NC(=O)[C@H](CO)NC(=O)C(C)(C)NC1=O [Example 328] (cyclo([Bip(4'-COOH)][4Pal][Phe(4-COOH)]G[Pro(cis-4-F)][Trp(βS-Me,4-F)][Aib]SW[d(αMeD)][Ala(pyrimidin-5-yl)]Q[Dab]G[X4]))
0.009 nM | C[C@@H](c1c[nH]c2cccc(F)c12)[C@@H]1NC(=O)[C@@H]2C[C@H](F)CN2C(=O)CNC(=O)[C@H](Cc2ccc(C(=O)O)cc2)NC(=O)[C@H](Cc2ccncc2)NC(=O)[C@H](Cc2ccc(-c3ccc(C(=O)O)cc3)cc2)NC(=O)[C@H]2C[C@@H](Cc3ccc(Cl)cc3)CN2C(=O)CNC(=O)[C@H](CCN)NC(=O)[C@H](CCC(N)=O)NC(=O)[C@H](Cc2cncnc2)NC(=O)[C@@](C)(CC(=O)O)NC(=O)[C@H](Cc2c[nH]c3ccccc23)NC(=O)[C@H](CO)NC(=O)C(C)(C)NC1=O [Example 329] (cyclo([Bip(4'-COOH)][4Pal][Phe(4-COOH)]G[Pro(cis-4-F)][Trp(βS-Me,4-F)][Aib]SW[d(αMeD)][Ala(pyrimidin-5-yl)]Q[Dab]G[X20]))
